Data published in paper PMC3164901 (European journal of medicinal chemistry, 2011).
Where a name gives a salt, the structure may show the parent alone.

What was measured:
recombinant human PED10A = recombinant human PED10A (Homo sapiens, UniProt Q9Y233); test: PDE10A enzyme assay, [3H]cAMP scintillation proximity assay; type: biochemical
PDE3A = PDE3A (Homo sapiens, UniProt Q14432); test: PDE3A enzyme assay, [3H]cAMP SPA; type: biochemical
PDE3B = PDE3B (Homo sapiens, UniProt Q13370); test: PDE3B enzyme assay, [3H]cAMP SPA; type: biochemical
rats [1] = settings: ref [8]; cited from earlier work
[2] = ref [24]; cited from earlier work
rat = settings: ref [23]; cited from earlier work
rats [3] = settings: ref [8], cited from earlier work

Chain of recombinant human PED10A (Q9Y233 whole entry): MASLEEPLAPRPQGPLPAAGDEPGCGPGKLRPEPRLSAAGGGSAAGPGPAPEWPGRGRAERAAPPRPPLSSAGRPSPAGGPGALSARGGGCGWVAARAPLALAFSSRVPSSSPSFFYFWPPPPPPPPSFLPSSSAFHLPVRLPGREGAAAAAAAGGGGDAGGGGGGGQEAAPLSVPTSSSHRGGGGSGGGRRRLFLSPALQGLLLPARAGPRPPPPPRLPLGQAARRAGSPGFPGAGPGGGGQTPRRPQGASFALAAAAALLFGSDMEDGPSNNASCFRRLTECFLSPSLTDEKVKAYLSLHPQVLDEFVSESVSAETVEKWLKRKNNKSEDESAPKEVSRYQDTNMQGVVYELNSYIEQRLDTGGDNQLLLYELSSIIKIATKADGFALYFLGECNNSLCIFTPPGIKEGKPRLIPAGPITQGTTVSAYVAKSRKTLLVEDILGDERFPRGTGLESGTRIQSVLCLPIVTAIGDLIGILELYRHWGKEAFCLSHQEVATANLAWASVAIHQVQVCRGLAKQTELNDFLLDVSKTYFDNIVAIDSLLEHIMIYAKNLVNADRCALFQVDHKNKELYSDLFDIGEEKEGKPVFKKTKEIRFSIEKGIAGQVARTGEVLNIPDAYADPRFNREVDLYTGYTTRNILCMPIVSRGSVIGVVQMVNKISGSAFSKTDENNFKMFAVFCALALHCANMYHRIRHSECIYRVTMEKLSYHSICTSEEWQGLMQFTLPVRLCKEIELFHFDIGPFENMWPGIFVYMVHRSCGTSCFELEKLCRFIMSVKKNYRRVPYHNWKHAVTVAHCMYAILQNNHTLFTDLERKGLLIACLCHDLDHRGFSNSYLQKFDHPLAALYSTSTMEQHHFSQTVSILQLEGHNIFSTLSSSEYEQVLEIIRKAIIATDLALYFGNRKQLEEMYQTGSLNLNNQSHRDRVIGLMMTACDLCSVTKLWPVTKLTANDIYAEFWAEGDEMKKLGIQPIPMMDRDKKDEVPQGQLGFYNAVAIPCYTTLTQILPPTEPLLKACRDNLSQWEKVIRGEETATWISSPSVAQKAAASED
Chain of PDE3A (Q14432 whole entry, species assumed): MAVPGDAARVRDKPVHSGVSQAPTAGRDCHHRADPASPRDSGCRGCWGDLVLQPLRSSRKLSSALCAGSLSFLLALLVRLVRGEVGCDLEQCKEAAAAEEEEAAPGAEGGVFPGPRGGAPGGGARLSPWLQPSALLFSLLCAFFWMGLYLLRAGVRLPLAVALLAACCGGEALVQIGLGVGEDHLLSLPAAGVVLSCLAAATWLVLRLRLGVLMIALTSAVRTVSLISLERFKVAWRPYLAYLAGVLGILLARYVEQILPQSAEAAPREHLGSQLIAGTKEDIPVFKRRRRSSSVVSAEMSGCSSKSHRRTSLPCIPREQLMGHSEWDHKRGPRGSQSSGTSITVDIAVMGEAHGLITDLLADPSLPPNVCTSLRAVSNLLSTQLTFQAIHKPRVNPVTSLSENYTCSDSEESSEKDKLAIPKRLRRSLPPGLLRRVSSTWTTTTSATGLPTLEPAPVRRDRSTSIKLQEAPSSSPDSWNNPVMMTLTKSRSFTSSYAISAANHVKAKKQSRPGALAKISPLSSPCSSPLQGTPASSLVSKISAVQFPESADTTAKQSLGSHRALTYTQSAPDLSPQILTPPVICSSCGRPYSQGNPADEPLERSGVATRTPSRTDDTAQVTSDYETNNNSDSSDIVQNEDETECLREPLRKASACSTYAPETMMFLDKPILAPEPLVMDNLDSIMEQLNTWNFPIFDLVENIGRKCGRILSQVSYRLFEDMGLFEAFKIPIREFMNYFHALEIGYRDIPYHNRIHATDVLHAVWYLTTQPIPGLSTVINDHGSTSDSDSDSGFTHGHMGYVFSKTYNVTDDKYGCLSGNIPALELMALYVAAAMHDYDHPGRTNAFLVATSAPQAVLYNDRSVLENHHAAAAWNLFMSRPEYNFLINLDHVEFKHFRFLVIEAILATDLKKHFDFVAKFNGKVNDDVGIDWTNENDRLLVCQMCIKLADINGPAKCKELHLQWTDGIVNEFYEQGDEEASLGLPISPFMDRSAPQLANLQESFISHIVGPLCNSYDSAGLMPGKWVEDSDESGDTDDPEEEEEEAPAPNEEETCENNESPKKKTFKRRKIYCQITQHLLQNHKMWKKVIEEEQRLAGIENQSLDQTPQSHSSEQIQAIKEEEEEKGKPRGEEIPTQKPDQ
Chain of PDE3B (Q13370 whole entry, species assumed): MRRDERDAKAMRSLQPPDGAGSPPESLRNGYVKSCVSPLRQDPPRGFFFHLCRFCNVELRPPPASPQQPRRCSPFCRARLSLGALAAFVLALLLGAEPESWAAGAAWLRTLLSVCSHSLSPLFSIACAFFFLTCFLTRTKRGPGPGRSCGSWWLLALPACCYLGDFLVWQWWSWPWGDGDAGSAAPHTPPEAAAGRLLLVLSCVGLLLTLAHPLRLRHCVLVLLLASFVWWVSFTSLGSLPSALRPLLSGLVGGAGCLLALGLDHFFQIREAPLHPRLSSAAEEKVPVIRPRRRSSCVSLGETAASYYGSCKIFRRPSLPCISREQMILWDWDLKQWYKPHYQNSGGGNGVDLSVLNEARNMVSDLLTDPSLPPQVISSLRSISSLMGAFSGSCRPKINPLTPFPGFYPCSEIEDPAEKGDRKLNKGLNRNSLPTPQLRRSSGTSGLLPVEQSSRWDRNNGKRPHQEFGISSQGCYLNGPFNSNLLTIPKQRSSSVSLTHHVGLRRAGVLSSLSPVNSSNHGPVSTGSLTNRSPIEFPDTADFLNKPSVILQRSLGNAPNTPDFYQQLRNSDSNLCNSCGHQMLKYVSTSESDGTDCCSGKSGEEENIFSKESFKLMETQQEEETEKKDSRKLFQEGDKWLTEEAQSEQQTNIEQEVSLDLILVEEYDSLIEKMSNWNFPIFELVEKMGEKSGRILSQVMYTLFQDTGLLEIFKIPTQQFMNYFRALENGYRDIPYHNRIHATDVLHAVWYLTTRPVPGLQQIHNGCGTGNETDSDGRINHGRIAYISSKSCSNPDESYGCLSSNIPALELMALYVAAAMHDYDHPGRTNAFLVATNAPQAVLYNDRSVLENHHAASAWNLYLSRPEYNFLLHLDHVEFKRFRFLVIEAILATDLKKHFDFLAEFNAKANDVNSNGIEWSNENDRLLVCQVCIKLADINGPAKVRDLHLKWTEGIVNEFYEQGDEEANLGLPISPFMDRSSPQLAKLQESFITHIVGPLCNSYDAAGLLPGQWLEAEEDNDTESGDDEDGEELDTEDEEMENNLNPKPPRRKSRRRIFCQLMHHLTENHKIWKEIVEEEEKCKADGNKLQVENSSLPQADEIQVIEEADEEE

SMILES: COc1ccc(Cc2ncnc3cc(OC)c(OC)cc23)cc1 [compound 11, 6,7-Dimethoxy-4-(4-methoxybenzyl)quinazoline oxalate]
- IC50 (recombinant human PED10A): 0.0488 ± 0.00107 µM
- IC50 (PDE3A): 3.98 ± 0.51 µM
- IC50 (PDE3B): 3.1 ± 0.27 µM

SMILES: FC(F)(F)Cn1cc(-c2ccncc2)c(-c2ccc(OCc3ccc4ccccc4n3)cc2)n1 [TP-10]
- hyperactivity induced by phenylcyclohexylpiperidine (PCP) and amphetamine (rats [1]): able to reduce hyperactivity

SMILES: Cn1cc(-c2ccncc2)c(-c2ccc(OCc3ccc4ccccc4n3)cc2)n1 [MP-10]
- hyperactivity induced by phenylcyclohexylpiperidine (PCP) and amphetamine (rats [1]): able to reduce hyperactivity

SMILES: COc1cc2ccnc(Cc3ccc(OCCOCCF)c(OC)c3)c2cc1OC.O=C(O)C(=O)O [8c, 1-(4-(2-(2-Fluoroethoxy)ethoxy)-3-methoxybenzyl)-6,7-dimethoxyisoquinoline oxalate]
- increase of PDE10A affinity versus 8b (recombinant human PED10A; 4-fluoroethoxy extended to 4-(2-(2-fluoroethoxy))ethoxy): 2 fold

SMILES: COc1cc(Cc2nccc3cc(OC)c(OCCF)cc23)cc(OC)c1 [6l, 1-(3,5-Dimethoxybenzyl)-7-(2-fluoroethoxy)-6-methoxyisoquinoline oxalate]
- IC50 (recombinant human PED10A): 0.262 ± 0.0011 µM

SMILES: COc1cc2ncnc(C3CC[C@H](Oc4cnc5ccccc5n4)C3)c2cc1OC (stereo partly shown) [PQ-10]
- hyperactivity induced by phenylcyclohexylpiperidine (PCP) and amphetamine (rats [1]): able to reduce hyperactivity

SMILES: COc1ccc(Cc2nccc3cc(OC)c(OC)cc23)cc1OC [Papaverine, 1-(3,4-dimethoxybenzyl-6,7-dimethoxy)isoquinoline]
- in vivo metabolism [2]: rapid in vivo metabolism
- efficacy in novel object recognition (rat): shown efficacy
- hyperactivity induced by phenylcyclohexylpiperidine (PCP) and amphetamine (rats [1]): able to reduce hyperactivity
- catalepsy on its own (rats [3]; compound alone): did not cause catalepsy on its own
- effect on cataleptic effect of the D2 receptor antagonist haloperidol (rats [3]; with haloperidol): potentiated the cataleptic effect
